Results from ChEMBL document CHEMBL1131943, “Inhibition of 4-hydroxyphenylpyruvate dioxygenase by sethoxydim, a potent inhibitor of acetyl-coenzyme A carboxylase” (Bioorg Med Chem Lett, 1999).

Key:
[1] = target: T1, 4-hydroxyphenylpyruvate dioxygenase (Sus scrofa, UniProt Q02110); test: The inhibitory activity on pig liver 4-hydroxyphenylpyruvate dioxygenase (HPPD) was evaluated.
[2] = target: T1, 4-hydroxyphenylpyruvate dioxygenase; test: Compound was evaluated for competitive inhibition of 4-hydroxyphenylpyruvate dioxygenase (HPPD) (complete inhibition was observed at a concentration of 0.5-1.0 mM)
[3] = target: 4-hydroxyphenylpyruvate dioxygenase (Sus scrofa) (UniProt Q02110); test: Compound was evaluated for complete competitive inhibition of 4-hydroxyphenylpyruvate dioxygenase (HPPD)
[4] = target: T1, 4-hydroxyphenylpyruvate dioxygenase; test: Inhibitory activity on pig liver 4-hydroxyphenylpyruvate dioxygenase (HPPD) was evaluated

T1 sequence (Q02110 whole entry): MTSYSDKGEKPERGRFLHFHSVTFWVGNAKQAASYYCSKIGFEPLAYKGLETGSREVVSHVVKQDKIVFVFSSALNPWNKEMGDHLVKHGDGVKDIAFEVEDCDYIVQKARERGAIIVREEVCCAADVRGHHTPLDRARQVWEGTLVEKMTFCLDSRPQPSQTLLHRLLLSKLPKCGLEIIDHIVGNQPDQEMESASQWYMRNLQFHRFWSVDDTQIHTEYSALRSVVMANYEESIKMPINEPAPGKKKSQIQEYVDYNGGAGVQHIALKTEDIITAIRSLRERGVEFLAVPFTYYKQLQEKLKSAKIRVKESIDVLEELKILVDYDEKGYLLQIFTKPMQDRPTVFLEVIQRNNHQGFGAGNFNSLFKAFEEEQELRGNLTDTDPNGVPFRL
Sequence of 4-hydroxyphenylpyruvate dioxygenase (Sus scrofa) (Q02110 2-393 limits assumed): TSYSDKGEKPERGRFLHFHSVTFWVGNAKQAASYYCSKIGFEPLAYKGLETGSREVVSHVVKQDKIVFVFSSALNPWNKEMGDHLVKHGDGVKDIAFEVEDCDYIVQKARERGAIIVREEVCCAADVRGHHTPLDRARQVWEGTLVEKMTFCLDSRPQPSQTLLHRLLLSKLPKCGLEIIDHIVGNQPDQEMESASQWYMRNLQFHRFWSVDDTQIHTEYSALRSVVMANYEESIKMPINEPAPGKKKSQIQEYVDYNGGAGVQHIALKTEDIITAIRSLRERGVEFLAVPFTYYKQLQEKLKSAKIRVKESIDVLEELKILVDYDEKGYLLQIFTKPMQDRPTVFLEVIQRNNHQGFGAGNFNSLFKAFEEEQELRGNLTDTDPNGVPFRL

O=C1CCCC(=O)C1=C(O)c1ccc(C(F)(F)F)cc1[N+](=O)[O-]
IC50 [1]: 40 nM

CCC/C(=N\OCC)C1=C(O)CC(CC(C)SCC)CC1=O (centres undefined) [SETHOXYDIM]
Ki [2]: 300 µM
IC100 [3]: 1 mM

CS(=O)(=O)c1ccc(C(O)=C2C(=O)CCCC2=O)c(Cl)c1
IC50 [4]: 45 nM
